Source: publication PMC8157262 (Pharmaceutics, 2021)
Like-named read-outs stand apart in the source and are kept apart here.

Experiments:
[1] = oral, healthy male adults; cited from earlier work
in vitro [2] = settings: rat, intestinal microsomes
in vivo = settings: Sprague-Dawley, rat; for bioavailability: F
[3] = cited from earlier work
[4] = test system: rat intestinal microsomes
[5] = test system: Candida albicans-infected mice; settings: long-term administration to Candida albicans-infected mice; cited from earlier work
[6] = Sprague-Dawley, rat, in vivo
in vitro [7] = settings: rat, liver microsomes
rat hepatic microsomes = settings: for Vmax for the elimination of tofacitinib: liver microsomes, n = 3
[8] = Protein binding of tofacitinib to fresh rat plasma (equilibrium dialysis); format: in vitro ADME; settings: n = 5, read-out: Protein binding (bound fraction) (converted)
Experimental: Briefly, plasma was dialyzed against isotonic phosphate buffer (pH 7.4) in a 1 mL dialysis cell (Spectrum Medical Industries, Los Angeles, CA, USA).

[9] = Pharmacokinetics after intravenous administration of tofacitinib and/or voriconazole to rats; settings: Sprague-Dawley, rat, 10 mg/kg
Experimental: In all cases, the treatment was administered intravenously for 1 min via the jugular vein (total injection volume of 4 mL/kg). Blood samples (approximately 0.12 mL for single drug administration and 0.22 mL for co-administration of both drugs) were taken from the carotid artery at 0 (before the start of injection), 1 (right after injection), 5, 15, 30, 60, 120, 180, 240, 360, 480, 600 and/or 720 min after the start of injection. […] Urine samples, collected for 24 h following injection, and gastrointestinal tract (including its contents and feces) samples, collected 24 h after injection, were prepared in accordance with previously reported methods.

α-glycosidase = settings: interaction with acarbose; cited from earlier work
[10] = test system: human carbonic anhydrase 1; settings: interaction with acetazolamide; cited from earlier work
[11] = pH 7.4, with voriconazole 20 μM
[12] = rat intestinal microsomes, 20 μM voriconazole
[13] = rat hepatic microsomes, 20 μM voriconazole

C[C@@H]1CCN(C(=O)CC#N)C[C@@H]1N(C)c1ncnc2[nH]ccc12 [tofacitinib, Tofacitinib]
AUC of tofacitinib higher when co-administered with fluconazole [1]: 79%
AUC of tofacitinib higher when combined with ketoconazole [1]: 103%
Km (in vitro [2]; pH 7.4): 43.1 ± 11.7 µM
microsomal CLint (in vitro [2]; pH 7.4): 8.94 ± 1 µL/min/mg
Km (in vitro [2]; [11]): 30.1 ± 3.29 µM
microsomal CLint (in vitro [2]; [11]): 7.05 ± 0.12 µL/min/mg
bioavailability (in vivo): 71.2%
CL renal (in vivo; po, 20 mg/kg, CLR): 5.36 ± 1.35 mL/min/kg
Tmax (in vivo; po, 20 mg/kg): 1.46 h
Volume of distribution ([3]; tofacitinib oral, healthy subjects): 1.24 L/kg
Plasma protein binding ([3]; tofacitinib, healthy subjects): approximately 40%
Absolute oral bioavailability (F) ([3]; tofacitinib, humans): approximately 74%
Fraction processed by CYP2C19 ([3]; tofacitinib, humans): 20%
Fraction processed by CYP3A4 ([3]; tofacitinib, humans): about 50%
Vmax for the elimination of tofacitinib ([4]; intestinal microsomes, with 20 μM VCZ, n = 3): 212 ± 27.0 pmol/min/mg protein
Vmax for the elimination of tofacitinib ([4]; intestinal microsomes, without VCZ, n = 3): 380 ± 86.1 pmol/min/mg protein
CLint of tofacitinib slower in the presence of voriconazole [4, 12]: 21.1%
Vmax of tofacitinib elimination slower in the presence of voriconazole [4, 12]: 44.2%
Survival rate of infected mice [5]: significantly reduce their survival rate
F [6]: 72.4%
'true' fraction of the oral dose unabsorbed (Funabs) ([6]; po): approximately 0.162%
Fraction of the oral dose absorbed ([6]; po): more than 99%
CLR ([6]; po, 20 mg/kg): 0.310 ± 0.117 mL/min/kg
Km (in vitro [7]; pH 7.4): 124 ± 13.7 µM
microsomal CLint (in vitro [7]; pH 7.4): 23.3 ± 0.689 µL/min/mg
Km (in vitro [7]; [11]): 147 ± 43.4 µM
microsomal CLint (in vitro [7]; [11]): 8.05 ± 2.01 µL/min/mg
Vmax for the elimination of tofacitinib (rat hepatic microsomes; with 20 μM VCZ): 1184 ± 470 pmol/min/mg protein
Vmax for the elimination of tofacitinib (rat hepatic microsomes; without VCZ): 2895 ± 319 pmol/min/mg protein
CLint of tofacitinib slower in the presence of voriconazole (rat hepatic microsomes; [13]): 65.5%
Vmax of tofacitinib elimination slower in the presence of voriconazole (rat hepatic microsomes; [13]): 59.1%
fraction unbound at 8 h, 5 μg/mL ([8]; pH 7.4, tofacitinib 5 μg/mL in the absence of voriconazole): 0.621
fraction unbound at 8 h, 5 μg/mL ([8]; pH 7.4, tofacitinib 5 μg/mL in the presence of voriconazole 5 μg/mL): 0.639
AUC ([9]; in vivo): 12300 ng·h/mL
CL renal ([9]; in vivo): 3.61 ± 0.829 mL/min/kg
AUC ([9]; iv, AUC): 4630 ng·h/mL
CL renal ([9]; iv, CLR): 1.44 ± 0.678 mL/min/kg
Vd ([9]; iv, Vss): 1.21 ± 0.489 L/kg

C[C@@H](c1ncncc1F)[C@](O)(Cn1cncn1)c1ccc(F)cc1F [voriconazole, Voriconazole]
bioavailability (in vivo): 106%
AUC (in vivo; po, 20 mg/kg, AUC): 65600 ng·h/mL
Cmax (in vivo; po, 20 mg/kg, Cmax): 7820 ± 1130 ng/mL
Tmax (in vivo; po, 20 mg/kg): 4.38 h
F ([3]; human, in vivo): over 90%
Protein binding ([3]; human, in vivo): approximately 58%
half-life ([3]; human, in vivo): approximately 6 h
Manner of inhibition of tofacitinib metabolism by voriconazole ([4]; rat intestinal microsomes): non-competitive manner
Ki ([4]; read-out: Apparent Ki of voriconazole for the inhibition of tofacitinib metabolism, intestinal microsomes, non-competitive model, n = 3): 26.2 ± 8.05 µM
F [6]: 122%
Manner of inhibition of tofacitinib metabolism by voriconazole (rat hepatic microsomes; Lineweaver–Burk and Dixon plots, rat hepatic microsomes): non-competitive manner
Type of inhibition of α-glycosidase (α-glycosidase): non-competitive inhibition
Type of inhibition of human carbonic anhydrase 1 [10]: non-competitive inhibition
MRT ([9]; iv): 6.67 ± 2.48 h
AUC ([9]; iv, AUC): 31000 ng·h/mL
MRT ([9]; iv, MRT): 7.03 h
half-life ([9]; iv, Terminal half-life): 5.23 ± 1.61 h
